The molecules below were run on IFNα-induced STAT phosphorylation (pSTAT5) in human whole blood (assay: IFNα-Induced STAT Phosphorylation in Human Whole Blood). Conditions: 1 h incubation with compound, 1000 U/mL recombinant human IFNα A/D for 15 min, pSTAT5 in CD3 positive population, read-out: IFNα-Induced Stat Phosph. (IC50).
Assay type: cell-based
Protocol: IFNα-Induced STAT Phosphorylation in Human Whole Blood
After an hour long incubation with compound, human whole blood (drawn with either EDTA or ACD-A as anti-coagulant) was stimulated with 1000 U/mL recombinant human IFNα A/D (R&D Systems 11200-2) for 15 min. The stimulation was stopped by adding Fix/Lyse buffer (BD 558049). Cells were stained with a CD3 FITC antibody (BD 555916), washed, and permeabilized on ice using Perm III buffer (BD 558050). Cells were then stained with an Alexa-Fluor 647 pSTAT5 (pY694) antibody (BD 612599) for 30 min prior to analysis on the FACS Canto II. The amount of pSTAT5 expression was quantitated by median fluorescence intensity after gating on the CD3 positive population.

SMILES	IC50
CNC(=O)c1cnc(Nc2cc(C3CC3)nc(C3CC3)n2)cc1Nc1ncccc1S(C)(=O)=O [Example 228]	181 nM
CNC(=O)c1nnc(Nc2cnc(C(F)(F)F)cn2)cc1Nc1ncccc1S(C)(=O)=O [Example 95]	133 nM
CNC(=O)c1cnc(Nc2cc(C(F)(F)F)ncn2)cc1Nc1ncccc1S(C)(=O)=O [Example 225]	164 nM
CNC(=O)c1nnc(Nc2ccc(N3CCOCC3=O)cn2)cc1Nc1ncccc1S(C)(=O)=O [Example 97]	13 nM
CNC(=O)c1nnc(Nc2ccc(OC)nn2)cc1Nc1ncccc1S(C)(=O)=O [Example 7]	42 nM
CNC(=O)c1nnc(Nc2ccc(N3CCOC(C)(C)C3)cn2)cc1Nc1ncccc1S(C)(=O)=O [Example 105]	9 nM
CCC(=O)Nc1cc(Nc2nc(C)ccc2S(C)(=O)=O)c(C(=O)NC)cn1 [Example 241]	203 nM
CNC(=O)c1nnc(Nc2ccc(C(C)(C)OC(=O)CN)cn2)cc1Nc1ncccc1S(C)(=O)=O [Example 67]	3580 nM
CNC(=O)c1nnc(Nc2ccc(COC)cn2)cc1Nc1ncccc1S(C)(=O)=O [Example 154]	6 nM
CNC(=O)c1nnc(Nc2ccc(C(C)(C)NC(=O)OC)cn2)cc1Nc1ncccc1S(C)(=O)=O [Example 74]	4 nM
CNC(=O)c1nnc(Nc2ccc(N3CCOCC3C)cn2)cc1Nc1ncccc1S(C)(=O)=O (stereo not shown) [Example 103]	16 nM
CNC(=O)c1nnc(Nc2ccc(-n3cc(Cl)ccc3=O)cn2)cc1Nc1ncccc1S(C)(=O)=O [Example 89]	32 nM
CNC(=O)c1nnc(Nc2ccc(C(C)(C)N3CCOC3=O)cn2)cc1Nc1ncccc1S(C)(=O)=O [Example 75]	18 nM
CNC(=O)c1nnc(Nc2ccc(C(C)(C)O)cn2)cc1Nc1nc(C)ccc1S(C)(=O)=O [Example 188]	6 nM
CNC(=O)c1nnc(Nc2cc(Cl)c(C(C)(C)O)cn2)cc1Nc1nc(OC)ccc1S(C)(=O)=O [Example 202]	50 nM
CNC(=O)c1nnc(Nc2ccc(N3CCOCC3)cn2)cc1Nc1ncccc1S(C)(=O)=O [Example 81]	3 nM
CNC(=O)c1nnc(Nc2ccc(OC3CCOC3)nn2)cc1Nc1ncccc1S(C)(=O)=O (stereo not shown) [Example 63]	13 nM
CNC(=O)c1nnc(Nc2cncc(-c3ccccc3)n2)cc1Nc1ncccc1S(C)(=O)=O [Example 115]	190 nM

SMILES	IC50
CCc1cnc(Nc2cc(Nc3ncccc3S(C)(=O)=O)c(C(=O)NC)nn2)cn1 [Example 39]	15 nM
CNC(=O)c1nnc(Nc2ccc(C(C)(C)N3CCCC3=O)cn2)cc1Nc1ncccc1S(C)(=O)=O [Example 76]	20 nM
CNC(=O)c1nnc(Nc2ccc(OC(F)(F)F)cn2)cc1Nc1ncccc1S(C)(=O)=O [Example 140]	34 nM
CNC(=O)c1nnc(Nc2ccc(Cl)nn2)cc1Nc1ncccc1S(C)(=O)=O [Example 90]	13 nM
CNC(=O)c1nnc(Nc2cc(C#N)n(C)n2)cc1Nc1ncccc1S(C)(=O)=O [Example 12]	38 nM
CNC(=O)c1nnc(Nc2cc(C)nc(C)n2)cc1Nc1ncccc1[S+](C)[O-] (stereo not shown) [Example 254]	186 nM
CNC(=O)c1nnc(Nc2cc(C(C)(C)N(C)C)ccn2)cc1Nc1ncccc1S(C)(=O)=O [Example 73]	76 nM
CNC(=O)c1nnc(Nc2cnc3c(n2)CCCCC3)cc1Nc1ncccc1S(C)(=O)=O [Example 99]	44 nM
CNC(=O)c1nnc(Nc2ccc(F)nn2)cc1Nc1ncccc1S(C)(=O)=O [Example 86]	40 nM
CNC(=O)c1nnc(Nc2ccc(-c3ccccc3)nn2)cc1Nc1ncccc1S(C)(=O)=O [Example 106]	124 nM
CNC(=O)c1nnc(Nc2cccc(F)n2)cc1Nc1ncccc1S(C)(=O)=O [Example 5]	13 nM
CNC(=O)c1nnc(Nc2ccc(N(C)C)nn2)cc1Nc1ncccc1S(C)(=O)=O [Example 38]	18 nM
CCC(=O)Nc1cc(Nc2nc(F)ccc2S(C)(=O)=O)c(C(=O)NC)nn1 [Example 179]	1060 nM
CNC(=O)c1cnc(Nc2ccc(C#N)cn2)cc1Nc1ncccc1S(C)(=O)=O [Example 220]	15 nM
CNC(=O)c1nnc(Nc2ccc(N3CC(C)OC(C)C3)cn2)cc1Nc1ncccc1S(C)(=O)=O (stereo not shown) [Example 100]	15 nM
CNC(=O)c1nnc(Nc2ccc(C3(C#N)CC3)cn2)cc1Nc1ncccc1S(C)(=O)=O [Example 33]	18 nM
CNC(=O)c1nnc(Nc2cc(N(C)C)ncn2)cc1Nc1ncccc1S(C)(=O)=O [Example 34]	115 nM

Other lines, results leading:

IC50	SMILES
167 nM	CCCC(=O)Nc1cc(Nc2ncccc2S(C)(=O)=O)c(C(=O)NC)nn1 [Example 108]
53 nM	CNC(=O)c1nnc(NC(=O)[C@@H]2C[C@H]2C)cc1Nc1ncccc1S(C)(=O)=O [Example 46]
88 nM	CNC(=O)c1nnc(NC(=O)CC2CC2)cc1Nc1ncccc1S(C)(=O)=O [Example 164]
73 nM	CNC(=O)c1nnc(NC(=O)C2CC2)cc1Nc1nc(F)ccc1S(C)(=O)=O [Example 180]
893 nM	CNC(=O)c1nnc(NC(=O)CC(C)(C)C)cc1Nc1ncccc1S(C)(=O)=O [Example 139]
28 nM	CNC(=O)c1nnc(Nc2cnc(C)cn2)cc1Nc1ncccc1S(C)(=O)=O [Example 93]
26 nM	CNC(=O)c1nnc(NC(=O)[C@@H]2C[C@H]2F)cc1Nc1ncccc1S(C)(=O)=O [Example 43]
47 nM	CNC(=O)c1nnc(Nc2cc(Cl)n(C)n2)cc1Nc1ncccc1S(C)(=O)=O [Example 161]
131 nM	CNC(=O)c1nnc(NC(=O)CCOC)cc1Nc1ncccc1S(C)(=O)=O [Example 118]
343 nM	CNC(=O)c1nnc(NC(=O)C2CC(F)C2)cc1Nc1ncccc1S(C)(=O)=O (single isomer, unassigned) [Example 126]
48 nM	CNC(=O)c1nnc(NC(=O)C2CC23CC3)cc1Nc1ncccc1S(C)(=O)=O (stereo not shown) [Example 47]
21 nM	CNC(=O)c1nnc(Nc2ccc(C)cn2)cc1Nc1ncccc1S(C)(=O)=O [Example 10]
61 nM	CNC(=O)c1nnc(NC(=O)C=C2CCCCC2)cc1Nc1ncccc1S(C)(=O)=O [Example 128]
209 nM	CCOC(=O)Nc1cc(Nc2ncccc2S(C)(=O)=O)c(C(=O)NC)nn1 [Example 132]
73 nM	CCCCC(=O)Nc1cc(Nc2ncccc2S(C)(=O)=O)c(C(=O)NC)nn1 [Example 119]
40 nM	CNC(=O)c1nnc(NC(=O)[C@@H]2C[C@@H]2C)cc1Nc1ncccc1S(C)(=O)=O [Example 48]
183 nM	CNC(=O)c1nnc(NC(=O)C=C2CCOCC2)cc1Nc1ncccc1S(C)(=O)=O [Example 123]

Same assay, conditions: Homo sapiens, 1 h incubation with compound, 1000 U/mL recombinant human IFNα A/D for 15 min, pSTAT5 in CD3 positive population, read-out: IFNα-Induced Stat Phosph. (IC50)

SMILES	IC50
[2H]C([2H])([2H])NC(=O)c1nnc(Nc2cncc(C)n2)cc1Nc1ncccc1S(C)(=O)=O [Example 173, N-(methyl-d3)-6-((6-methylpyrazin-2-yl)amino)-4-((3-(methylsulfonyl)pyridin-2-yl)amino)pyridazine-3-carboxamide]	17 nM
[2H]C([2H])([2H])NC(=O)c1nnc(Nc2ccc(OC(F)F)nn2)cc1Nc1ncccc1S(C)(=O)=O [Example 246, 6-((6-(difluoromethoxy)pyridazin-3-yl)amino)-N-(methyl-d3)-4-((3-(methylsulfonyl)pyridin-2-yl)amino)pyridazine-3-carboxamide]	34 nM
[2H]C([2H])([2H])NC(=O)c1nnc(NC(=O)CC)cc1Nc1nc(OC)ccc1S(C)(=O)=O [Example 199, 4-((6-methoxy-3-(methylsulfonyl)pyridin-2-yl)amino)-N-(methyl-d3)-6-propionamidopyridazine-3-carboxamide]	1030 nM
[2H]C([2H])([2H])NC(=O)c1nnc(Nc2ccc(OC)nn2)cc1Nc1nc(C)ccc1S(C)(=O)=O [Example 183, 6-((6-methoxypyridazin-3-yl)amino)-N-(methyl-d3)-4-((6-methyl-3-(methylsulfonyl)pyridin-2-yl)amino)pyridazine-3-carboxamide]	105 nM
CCNC(=O)c1nnc(Nc2ccc(C(C)(C)O)cn2)cc1Nc1ncccc1S(C)(=O)=O [Example 211, N-ethyl-6-((5-(2-hydroxypropan-2-yl)pyridin-2-yl)amino)-4-((3-(methylsulfonyl)pyridin-2-yl)amino)pyridazine-3-carboxamide]	90 nM
[2H]C([2H])([2H])NC(=O)c1nnc(Nc2ccc(C(C)(C)NC(C)C)cn2)cc1Nc1ncccc1S(C)(=O)=O [Example 169, 6-((5-(2-(isopropylamino)propan-2-yl)pyridin-2-yl)amino)-N-(methyl-d3)-4-((3-(methylsulfonyl)pyridin-2-yl)amino)pyridazine-3-carboxamide]	8 nM
[2H]C([2H])([2H])NC(=O)c1nnc(Nc2cccnn2)cc1Nc1ncccc1S(C)(=O)=O [Example 251, N-(methyl-d3)-4-((3-(methylsulfonyl)pyridin-2-yl)amino)-6-(pyridazin-3-ylamino)pyridazine-3-carboxamide]	7 nM

The remaining lines, values ahead:

IC50	SMILES
12 nM	[2H]C([2H])([2H])NC(=O)c1nnc(NC(=O)C2CC2)cc1Nc1ncccc1S(C)(=O)=O [Example 159, 6-(cyclopropanecarboxamido)-N-trideuteromethyl-4-((3-(methylsulfonyl)pyridin-2-yl)amino)pyridazine-3-carboxamide]
1810 nM	[2H]C([2H])([2H])NC(=O)c1nnc(NC(=O)C2CC2(Cl)Cl)cc1Nc1ncccc1S(C)(=O)=O (stereo not shown) [Example 174, 6-(2,2-dichlorocyclopropane-1-carboxamido)-N-(methyl-d3)-4-((3-(methylsulfonyl)pyridin-2-yl)amino)pyridazine-3-carboxamide]
